Reference: ChEMBL document CHEMBL1777795, “From benzimidazole to indole-5-carboxamide Thumb Pocket I inhibitors of HCV NS5B polymerase. Part 1: indole C-2 SAR and discovery of diamide derivatives with nanomolar potency in cell-based subgenomic replicons” (Bioorg Med Chem Lett, 2011)

Legend:
[1] = (§1) Permeability from apical to basolateral side of human Caco2 cells; format: ADME, cell-based, Caco-2; details: Caco-2, read-out: permeability
[2] = Cmax in Sprague-Dawley rat at 10 mg/kg, po; format: ADME, organism-based; parameters: dose 10 mg/kg, route oral; details: in vivo
[3] = AUC in Sprague-Dawley rat at 10 mg/kg, po; format: ADME, organism-based; parameters: dose 10 mg/kg, route oral; details: plasma
[4] = Mean residence time in Sprague-Dawley rat at 10 mg/kg, po; format: ADME, organism-based; parameters: dose 10 mg/kg, route oral; details: in vivo
[5] = tested on: Caco-2; assay: as §1; format: ADME, cell-based; details: caco-2, BLD = below limit of detection

Compound | Papp A→B [1] [×10⁻⁶ cm/s] | other results
Cn1c(-c2ccccn2)c(C2CCCCC2)c2ccc(C(=O)NC(C)(C)C(=O)Nc3ccc(/C=C/C(=O)O)cc3)cc21 | 16 | Cmax [2]: 1230 nM; AUC [3]: 0.87 µM·h; MRT [4]: 0.5 h
Cn1c(-c2ccoc2)c(C2CCCCC2)c2ccc(C(=O)NC(C)(C)C(=O)Nc3ccc(/C=C/C(=O)O)cc3)cc21 | 6 | –
Cn1c(-c2nccs2)c(C2CCCCC2)c2ccc(C(=O)NC(C)(C)C(=O)Nc3ccc(/C=C/C(=O)O)cc3)cc21 | 8.5 | –
Cn1c(-c2cnco2)c(C2CCCCC2)c2ccc(C(=O)NC(C)(C)C(=O)Nc3ccc(/C=C/C(=O)O)cc3)cc21 | 5 | –
Cn1c(-c2csc(-c3cccnc3)n2)c(C2CCCCC2)c2ccc(C(=O)NC(C)(C)C(=O)Nc3ccc(/C=C/C(=O)O)cc3)cc21 | 0.2 | –
Cn1c(-c2ccc3ncccc3c2)c(C2CCCCC2)c2ccc(C(=O)NC(C)(C)C(=O)Nc3ccc(/C=C/C(=O)O)cc3)cc21 | – | permeability [5]: BLD
Cn1c(-c2cccc3cccnc23)c(C2CCCCC2)c2ccc(C(=O)NC(C)(C)C(=O)Nc3ccc(/C=C/C(=O)O)cc3)cc21 | 3.4 | –
Cn1c(-c2cccnc2)c(C2CCCCC2)c2ccc(C(=O)NC(C)(C)C(=O)Nc3ccc(/C=C/C(=O)O)cc3)cc21 | 9.4 | –
Cn1c(-c2ccncc2)c(C2CCCCC2)c2ccc(C(=O)NC(C)(C)C(=O)Nc3ccc(/C=C/C(=O)O)cc3)cc21 | 0.3 | –
Cc1cccc(-c2c(C3CCCCC3)c3ccc(C(=O)NC(C)(C)C(=O)Nc4ccc(/C=C/C(=O)O)cc4)cc3n2C)n1 | 6.9 | –
Cc1ccc(-c2c(C3CCCCC3)c3ccc(C(=O)NC(C)(C)C(=O)Nc4ccc(/C=C/C(=O)O)cc4)cc3n2C)nc1 | 16.4 | –
Cc1ccc(-c2c(C3CCCCC3)c3ccc(C(=O)NC(C)(C)C(=O)Nc4ccc(/C=C/C(=O)O)cc4)cc3n2C)cn1 | 2.6 | –
Cn1c(-c2cccc(N)n2)c(C2CCCCC2)c2ccc(C(=O)NC(C)(C)C(=O)Nc3ccc(/C=C/C(=O)O)cc3)cc21 | 1.5 | Cmax [2]: 990 nM; AUC [3]: 1.18 µM·h; MRT [4]: 3.4 h
COc1cccc(-c2c(C3CCCCC3)c3ccc(C(=O)NC(C)(C)C(=O)Nc4ccc(/C=C/C(=O)O)cc4)cc3n2C)n1 | 24 | –
Cn1c(-c2cncnc2)c(C2CCCCC2)c2ccc(C(=O)NC(C)(C)C(=O)Nc3ccc(/C=C/C(=O)O)cc3)cc21 | 3.3 | –
Cn1c(-c2cnccn2)c(C2CCCCC2)c2ccc(C(=O)NC(C)(C)C(=O)Nc3ccc(/C=C/C(=O)O)cc3)cc21 | 7 | –
